# Experiments:
# [1] = target: T1, High affinity nerve growth factor receptor (Homo sapiens, UniProt P04629); assay: Inhibition of TRKA assessed as [gamma33P]ATP incorporation into substrate
# Target sequence in this assay (P04629 whole entry): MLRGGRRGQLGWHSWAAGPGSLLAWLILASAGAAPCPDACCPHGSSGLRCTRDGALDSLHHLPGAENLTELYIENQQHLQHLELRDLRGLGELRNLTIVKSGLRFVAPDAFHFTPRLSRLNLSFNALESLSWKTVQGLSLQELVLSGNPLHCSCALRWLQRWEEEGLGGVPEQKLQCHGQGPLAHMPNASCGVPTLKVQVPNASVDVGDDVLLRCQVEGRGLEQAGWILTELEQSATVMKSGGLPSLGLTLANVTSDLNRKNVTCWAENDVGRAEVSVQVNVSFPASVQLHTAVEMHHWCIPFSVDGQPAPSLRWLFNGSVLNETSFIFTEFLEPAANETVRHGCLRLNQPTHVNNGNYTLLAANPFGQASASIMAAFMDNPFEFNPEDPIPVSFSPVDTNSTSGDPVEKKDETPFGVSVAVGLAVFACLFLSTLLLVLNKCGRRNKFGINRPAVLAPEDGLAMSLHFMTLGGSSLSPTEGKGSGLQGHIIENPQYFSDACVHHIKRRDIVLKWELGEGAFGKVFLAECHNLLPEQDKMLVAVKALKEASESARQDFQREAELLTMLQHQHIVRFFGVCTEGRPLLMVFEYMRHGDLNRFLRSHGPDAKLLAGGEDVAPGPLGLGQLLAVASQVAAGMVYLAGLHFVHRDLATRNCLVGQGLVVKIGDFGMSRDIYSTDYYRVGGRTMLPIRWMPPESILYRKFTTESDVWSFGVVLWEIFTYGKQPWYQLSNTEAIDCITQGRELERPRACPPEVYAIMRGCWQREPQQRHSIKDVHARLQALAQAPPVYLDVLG
# MCF7 = assay: cells; settings: Homo sapiens, MCF7, 48 h
# Description: Cytotoxicity against human MCF7 cells after 48 hrs by MTT assay
# [2] = target: T1, High affinity nerve growth factor receptor; assay: Binding affinity to TRKA by high throughput assay
# Target sequence in this assay (P04629 whole entry): as above
# [3] = target: T2, Phosphatidylinositol 4,5-bisphosphate 3-kinase catalytic subunit alpha isoform (Homo sapiens, UniProt P42336); assay: Binding affinity to PI3Kalpha at 10 uM by high throughput binding assay relative to control
# [4] = target: T2, Phosphatidylinositol 4,5-bisphosphate 3-kinase catalytic subunit alpha isoform; assay: Binding affinity to PI3Kalpha by high throughput assay
# [5] = Selectivity ratio of Kd for PI3Kalpha to Kd for TRKA
# [6] = target: T1, High affinity nerve growth factor receptor; assay: Binding affinity to TRKA at 10 uM by high throughput binding assay relative to control
# Target sequence in this assay (P04629 33-796 limits assumed): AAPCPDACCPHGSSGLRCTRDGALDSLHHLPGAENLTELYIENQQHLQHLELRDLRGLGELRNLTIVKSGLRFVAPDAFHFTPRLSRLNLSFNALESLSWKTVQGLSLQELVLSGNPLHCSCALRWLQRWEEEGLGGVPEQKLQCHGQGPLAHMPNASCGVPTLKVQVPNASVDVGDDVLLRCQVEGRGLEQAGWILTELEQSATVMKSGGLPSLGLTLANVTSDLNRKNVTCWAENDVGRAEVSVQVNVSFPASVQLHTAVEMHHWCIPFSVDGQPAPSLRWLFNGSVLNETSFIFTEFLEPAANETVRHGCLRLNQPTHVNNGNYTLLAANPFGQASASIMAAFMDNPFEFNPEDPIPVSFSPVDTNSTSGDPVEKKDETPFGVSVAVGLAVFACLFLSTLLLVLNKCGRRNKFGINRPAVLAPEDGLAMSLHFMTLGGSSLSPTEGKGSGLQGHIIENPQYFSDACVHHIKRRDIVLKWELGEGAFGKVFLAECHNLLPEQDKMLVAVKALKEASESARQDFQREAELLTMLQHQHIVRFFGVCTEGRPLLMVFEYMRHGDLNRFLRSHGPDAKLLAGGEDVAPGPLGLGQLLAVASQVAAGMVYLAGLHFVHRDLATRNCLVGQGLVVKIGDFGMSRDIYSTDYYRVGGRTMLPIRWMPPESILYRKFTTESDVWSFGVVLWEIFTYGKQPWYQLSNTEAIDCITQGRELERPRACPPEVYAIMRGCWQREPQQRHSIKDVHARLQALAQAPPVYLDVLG
# T2 sequence (P42336 whole entry, canonical isoform): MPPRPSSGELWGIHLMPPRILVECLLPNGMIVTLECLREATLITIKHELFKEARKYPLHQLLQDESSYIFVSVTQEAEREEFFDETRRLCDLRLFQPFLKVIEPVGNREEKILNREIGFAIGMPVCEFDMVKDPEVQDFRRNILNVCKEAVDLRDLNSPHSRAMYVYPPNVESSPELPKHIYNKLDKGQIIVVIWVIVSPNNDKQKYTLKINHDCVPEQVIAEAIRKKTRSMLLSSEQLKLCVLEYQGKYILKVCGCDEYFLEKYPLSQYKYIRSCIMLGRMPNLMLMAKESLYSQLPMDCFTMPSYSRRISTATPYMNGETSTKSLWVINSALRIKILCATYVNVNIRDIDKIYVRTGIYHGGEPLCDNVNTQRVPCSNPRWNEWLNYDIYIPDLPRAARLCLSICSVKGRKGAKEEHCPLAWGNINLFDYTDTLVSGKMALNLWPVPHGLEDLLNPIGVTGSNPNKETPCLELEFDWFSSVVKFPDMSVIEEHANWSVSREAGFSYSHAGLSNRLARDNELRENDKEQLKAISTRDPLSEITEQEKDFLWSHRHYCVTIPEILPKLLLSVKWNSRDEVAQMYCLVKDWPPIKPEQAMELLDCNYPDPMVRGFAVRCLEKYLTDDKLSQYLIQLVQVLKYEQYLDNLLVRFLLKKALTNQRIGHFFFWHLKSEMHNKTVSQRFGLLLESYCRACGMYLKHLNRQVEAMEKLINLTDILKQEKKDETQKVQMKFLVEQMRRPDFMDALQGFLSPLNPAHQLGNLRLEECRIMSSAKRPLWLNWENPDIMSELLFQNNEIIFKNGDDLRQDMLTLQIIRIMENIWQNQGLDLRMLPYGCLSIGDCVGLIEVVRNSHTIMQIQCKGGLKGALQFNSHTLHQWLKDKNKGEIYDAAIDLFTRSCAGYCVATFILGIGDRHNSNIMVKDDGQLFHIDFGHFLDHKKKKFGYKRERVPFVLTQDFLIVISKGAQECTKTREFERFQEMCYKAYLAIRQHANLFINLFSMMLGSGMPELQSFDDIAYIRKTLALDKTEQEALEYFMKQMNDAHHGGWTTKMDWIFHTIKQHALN
IC50 [1] [nM],IC50 (MCF7) [nM],Kd [2] [nM],Activity [3] [%],Kd [4] [nM],Selectivity ratio [5],Activity [6] [%],SMILES
69.6,5100,–,–,–,–,–,Nc1cncc(-c2cnc3[nH]cc(-c4ccncc4)c3c2)c1
53.7,12000,–,–,–,–,–,Nc1cc(-c2cnc3[nH]cc(-c4ccncc4)c3c2)ccc1Cl
33.2,8700,–,–,–,–,–,COc1ccc(-c2cnc3[nH]cc(-c4ccncc4)c3c2)cc1N
110,5400,–,–,–,–,–,COc1ccc(N)cc1-c1cnc2[nH]cc(-c3ccncc3)c2c1
34.3,9100,–,–,–,–,–,CC(=O)Nc1cccc(-c2cnc3[nH]cc(-c4ccncc4)c3c2)c1
33.8,> 30000,–,–,–,–,–,CS(=O)(=O)Nc1cc(N)cc(-c2cnc3[nH]cc(-c4ccncc4)c3c2)c1
8.36,11200,–,–,–,–,–,Nc1cc(OCCN2CCOCC2)cc(-c2cnc3[nH]cc(-c4ccncc4)c3c2)c1
31.4,4500,–,–,–,–,–,CNc1cccc(-c2cnc3[nH]cc(-c4ccncc4)c3c2)c1
–,–,125,59,–,–,1.3,COc1ccc(-c2c[nH]c3ncc(-c4cccc(N)c4)cc23)cc1OC
–,–,75,42,4500,60,0.2,Nc1cccc(-c2cnc3[nH]cc(-c4cccnc4)c3c2)c1
13.6,11200,–,–,–,–,–,CN(C)CCOc1cc(N)cc(-c2cnc3[nH]cc(-c4ccncc4)c3c2)c1
–,–,91,31,2300,25,0.2,COc1ccc(-c2c[nH]c3ncc(-c4cccc(NS(=O)(=O)c5ccccc5)c4)cc23)cc1OC
22.2,2800,–,–,–,–,–,Cc1ccc(-c2cnc3[nH]cc(-c4ccncc4)c3c2)cc1N
18.6,8500,–,–,–,–,–,COc1cc(N)cc(-c2cnc3[nH]cc(-c4ccncc4)c3c2)c1
–,–,–,0.9,–,–,9.6,CS(=O)(=O)Nc1cccc(-c2c[nH]c3ncc(-c4cncc(NS(=O)(=O)c5ccccc5)c4)cc23)c1
5.41,> 30000,–,–,–,–,–,CC(=O)Nc1cc(N)cc(-c2cnc3[nH]cc(-c4ccncc4)c3c2)c1
3170,–,–,–,–,–,–,Nc1ccc(NS(=O)(=O)c2ccccc2)c(-c2cnc3[nH]cc(-c4ccncc4)c3c2)c1
–,–,110,48,12000,109,0.65,N#Cc1cccc(-c2cnc3[nH]cc(-c4cccc(N)c4)c3c2)c1
2.97,6600,–,–,–,–,–,Nc1cc(NS(=O)(=O)c2ccc(F)cc2F)cc(-c2cnc3[nH]cc(-c4ccncc4)c3c2)c1

# More lines, now with the values behind:
SMILES,IC50 [1] [nM],IC50 (MCF7) [nM],Kd [2] [nM],Activity [3] [%],Kd [4] [nM],Selectivity ratio [5],Activity [6] [%]
COc1ccc(-c2c[nH]c3ncc(-c4cncc(N)c4)cc23)cc1OC,–,–,58,12,960,17,0.05
Nc1cc(C(=O)N2CCOCC2)cc(-c2cnc3[nH]cc(-c4ccncc4)c3c2)c1,64.7,> 30000,–,–,–,–,–
N#Cc1cccc(-c2c[nH]c3ncc(-c4cccc(N)c4)cc23)c1,–,–,270,98,–,–,2.6
Nc1cc(-c2cnc3[nH]cc(-c4ccncc4)c3c2)ccc1C(=O)N1CCOCC1,88.6,8500,–,–,–,–,–
COc1cccc(-c2cnc3[nH]cc(-c4ccncc4)c3c2)c1,22.7,11700,–,–,–,–,–
Nc1cccc(-c2cnc3[nH]cc(-c4ccncc4)c3c2)c1,42.7,2300,64,31,2900,–,0
Nc1ccc(-c2cnc3[nH]cc(-c4ccncc4)c3c2)cc1,25,7700,–,–,–,–,–
COc1ccc(-c2c[nH]c3ncc(-c4cncc(NS(=O)(=O)c5ccccc5)c4)cc23)cc1OC,–,–,145,0.05,48,0.33,0.8
Cc1ccc(S(=O)(=O)Nc2cc(N)cc(-c3cnc4[nH]cc(-c5ccncc5)c4c3)c2)cc1,4.62,10400,–,–,–,–,–
CN(C)CCOc1ccc(-c2cnc3[nH]cc(-c4ccncc4)c3c2)cc1N,47,3100,–,–,–,–,–
Nc1cc(NS(=O)(=O)c2ccccc2)cc(-c2cnc3[nH]cc(-c4ccncc4)c3c2)c1,9.4,8800,–,–,–,–,–
Nc1cccc(-c2cnc3[nH]cc(-c4ccccc4)c3c2)c1,–,–,88,100,–,–,0.3
CN(C)c1cccc(-c2cnc3[nH]cc(-c4ccncc4)c3c2)c1,26.5,12100,–,–,–,–,–
COc1ccc(-c2c[nH]c3ncc(-c4cccc(C#N)c4)cc23)cc1OC,–,–,–,69,–,–,26

# Source: ChEMBL document CHEMBL2150859, “Design, synthesis, and evaluation of 3,5-disubstituted 7-azaindoles as Trk inhibitors with anticancer and antiangiogenic activities” (J Med Chem, 2012)
